These are literature values, as cited in patent US6896899B2, “Pharmaceutical preparations of glutathione and methods of administration thereof” (Antioxidant Pharmaceuticals Corp., priority 1996, dated 2005).

Molecules are shown by their SMILES.

One data set concerns HIV. The settings on record: acutely infected cells, chronically infected cells, normal peripheral blood mononuclear cells.
For data set [1] the following is noted: human, in vivo, iv.
The conditions of data set [2]: human, in vivo, po, 15 mg/kg.
In the next data set the test system is Mouse. The settings on record: GSH pretreatment.
Another data set concerns blood pressure. To be noted: 3,699 mg dose, normal subjects.
The test system of a further data set is hematologic parameters. To be noted: 1,200 mg/day intravenously.

Consider `N[C@@H](CCC(=O)N[C@@H](CS)C(=O)NCC(=O)O)C(=O)O` [GSH, gamma-glutamyl-cysteinyl-glycine], for which the “cytokine-stimulated HIV expression and replication” value in the data set on HIV is recorded as “can inhibit”. Besides, the “volume of distribution of exogenous glutathione” value in data set [1] was 176-107 Ml/Kg. For the same molecule, in data set [2], the “plasma glutathione levels over the basal concentration” value is 1.5-10 fold. Further, the “protection against morphine-induced lethality” value in the data set with Mouse is on record as “protects against morphine-induced lethality”. The “tumor growth and survival” value with hepatocellular carcinoma (5 g oral GSH per day) was “Two of the female patients survived 1 year and exhibited regression or stagnation of their tumor growth”. The side-effects result in the data set with hepatocellular carcinoma (human, in vivo, po) was “Two patients withdrew shortly after receiving GSH due to intolerable side-effects”. For the same molecule, the blood pressure result with blood pressure is recorded as “significant decrease”. Moreover, the “hematologic parameters (hematocrit, hemoglobin, blood count) compared to baseline” value with hematologic parameters is reported as “significantly increase”.

Regarding `CC(=O)N[C@@H](CS)C(=O)O` [NAC, N-acetyl cysteine], the “cytokine-stimulated HIV expression and replication” value in the data set on HIV is on record as “can inhibit”.
